# Measurements from patent EP0362382A1, “METHOD OF STERILIZING PLANT POLLEN” (VSESOJUZNY NAUCHNO-ISSLEDOVATELSKY INST. SELSKOKHOZYAISTV. …, priority 1988, dated 1989).
# How the values were obtained:
# Winterweizen = test: Field test of gametocidal activity (sterilisation of anthers), winter wheat; format: in vivo; conditions: Sorte Mironowskaja 808; V. Periode der Organogenese; 2%ige wäßrige Emulsion; 20 kg/ha
# Description: (§1) Die gametozide Aktivitat der erfindungsgemäßen Sterilisationsmittel war im Feldversuch in verschiedenen bodenklimatischen Zonen mit Teilstücken von 10 m^2 Größe in drei- bis viermaliger Wiederholung festgestellt. Jedes Sterilisationsmittel wurde mindenstens 5 Jahre lang geprüft.
# (§2) Die Entwicklung der Perioden der Organogenese wird zytologisch überwacht. Die Behandlung von Pflanzen mit dem Sterilisationsmittel erfolgt am Anfang der fünften Periode der Organogenese nach Kupermann.
# (§3) Mit dem Ährenschieben verwirklicht man die Isolierung von Hauptähren und anderen Stockwerken in Pergamentbeuteln. Bei Weizen und Tritikale werden Einzelisolatoren benutzt. Bei Roggen schließt man je Ähre 5 bis 7 verschiedene nebeneinander befindliche Pflanzen unter einen gemeinsamen Isolator ein. Bei Hierse wird jede Rispe getrennt isoliert. Der Sterilitätsprozentsatz (X) für Weizen, Roggen, Tritikale und Hirse wird nach der Formel [formula] ermittelt.
# (§4) Die Kornzahl in nicht isolierten Ähren von Kontrollpflanzen wird bedingt für 100 % Ansetzen bei freier Bestäubung angenommen.
# (§5) Um zuverlässige Angaben zu erhalten, verwendet man 20 bis 25 Isolatoren jeder Wiederholung für Weizen und Tritikale, 10 .bis 15 Isolatoren jeder Wiederholung für Roggen und Hirse.
# Pflanzen des Winterweizens Sorte Mironowskaja 808 werden in der V. Periode der Organogenese durch Zerstäubung der 2%igen wäßrigen Emulsion der δ, δ' -Thiodivaleriansäure mit Hilfe einer Rückenspritze behandelt. Als Emulgiermittel wird 0,1 Masse% Kalziumalkylbenzalsulfonat mit 12 bis 14 Kohlenstoffatomen hinzugefügt. Als Adjuvans führt man in die Emulsion 0,01 Masse% Dimethylsulfoxid ein. Der Verbrauch an Präparat beträgt 20 kg/ha. Als Kontrolle dienen Pflanzen, behandelt mit einem Verdünner ohne Sterilisationsmittel. Die Ergebnisse sind in der Tabelle 1 angegeben. […] Periode der Organogenese erhalten.
# Der Prozeß erfolgt analog zu dem im Beispiel 1 bescnriebenen. Als Sterilisationsmittel benutzt man 2%ige wäßrige Emulsion von Natriumsalz der δ, δ'-Thiodivaleriansäure, δ, δ' -Sulfonyldivaleriansäure, Natriumsalz der δ, δ' -Sulfonyldivaleriansäure, Kaliumsalz der δ, δ'--Sulfonyldivaleriansäure, Bis(di-n-butyläther) der δ, δ'--Thiodivaleriansäure, 4-Karboxybutyldezylsulfid bzw.
# Pflanzen des Winterweizens Sorte Korall werden in der V. Periode der Organogenese (nach Kupermann) mit 2%iger wäßriger Emulsion von Bis(2-äthylhexyläther) der δ, δ' --Thiodivaleriansäure, 4-Karboxybutyldezylsulfid bzw. Bis(di--n-butyläther) der δ, δ' -Thiodivalerianqäure behandelt. Die Emulsion enthält 0,1 Masse% Kalziumalkylbenzolsulfonat mit 12 bis 14 Kohlenstoffatomen und 0,01 Masse% Dodezylsulfat. Der Verbrauch an Präparat beträgt 12 kg/ha. Als Kontrolle dienen Pflanzen, behandelt mit einem Verdünner ohne Sterilisationsmittel. Die Prüfergebnisse sind in der Tabelle 2 angegeben.
# Pflanzen des Winterweizens Gordeiforme 12303 werden in der V. Periode der Organogenese (nach Kupermann) mit 2%iger wäßriger Emulsion von 4-Karboxybutyldezylsulfid, Bis(2-äthylhexyläther) der δ, δ' -Thiodivaleriansäure, δ, δ' -Sulfonyldivaleriansäure behandelt. Die Emulsion enthält als Emulgiermittel 0,1 Masse% Kalziumalkylbenzolsulfonat mit 12 bis 14 Kohlenstoffatomen und 0,01 Masse% Dimethylformamid. Der Verbrauch an Präparat beträgt 16 kg/ha. Als Kontrolle dienen Pflanzen, behandelt mit einem Verdünner ohne Sterilisationsmittel.
# Sommerweizen = test: Field test of gametocidal activity (sterilisation of anthers), spring wheat; format: in vivo; conditions: V. Periode der Organogenese
# Description: as §1, §2, §3, §4, §5
# Pflanzen des Sommerweizens Sorte Moskowskaja 35 werden in der V. Periode der Organogenese (nach Kupermann) mit 1%iger wäßriger Emulsion von δ, δ' -Thiodivaleriansäure, Natriumsalz der δ, δ' -Thiodivaleriansäure, δ, δ'--Sulfonyldivaleriansäure, Natriumsalz der d, δ' -Sulfonyldivaleriansäure, Kaliumsalz der δ, δ' -Sulfornyldivaleriansäure, Bis (die-n-butyläther) der δ, δ' -Thiodivaleriansäure, 4-Karboxybutyldezylsulfid, Bis(2-äthylhexyläther) der δ, δ' -Thiodivaleriansäure behandelt. Die Emulsion enthält 0,1 Masse% Kalziumalkylbenzolsulfonat mit 12 bis 14 Kohlenstoffatomen und 0,01 Masse% Dimethylsulfoxid. Der Verbrauch an Präparat beträgt 6 kg/ha. Als Kontrolle dienen Pflanzen, behandelt mit einem Verdünner ohne Sterilisationsmittel. Die Prüfergebnisse sind in der Tabelle 4 angegeben. […] Periode der Organogenese erhalten.
# (§6) Pflanzen des Sommerweizens Sorte Rodina werden in der V. Periode der Organogenese (nach Kupermann) mit l%iger wäßriger Emulsion von δ, δ' -Sulfornyldivaleriansäure, 4-Karboxybutyldezylsulfid, Bis(2-äthylhexyläther) der δ, δ' -Thiodivaleriansäure behandelt. Die Emulsion enthält 0,1 Masse% Kalziumalkylbenzolsulfonat mit 12 bis 14 Kohlenstoffatomen und 0,01 Masse% Tetrahydrofuran. Der Verbrauch an Präparat beträgt 6 kg/ha. Als Kontrolle dienen Pflanzen, behandelt mit einem Verdünner ohne Sterilisationsmittel. Die Prüfergebnisse sind in der Tabelle 5 angegeben. […] Periode der Organogenese erhalten.
# Pflanzen des Sommerwizens Sorte Charkowskaja 9 werden in der V. Periode der Organogenese (nach Kupermann.) mit 1%iger waßriger Emulsion von Bis(di-n-butyläther) der δ, δ' -Thiodivaleriansäure, Bis(2-äthylhexyläther) der δ, δ' -Thiodivaleriansäure behandelt. Die Emulsion enthält 0,1 Masse% Kalziumalkylbenzolsulfonat mit 12 bis 14 Kohlenstoffatomen und 0,01 Masse% Äthylenglykol. Der Verbrauch an Präparat beträgt 8 kg/ha. Als Kontrolle dienen Pflanzen, behandelt mit einem Verdünner ohne Sterilisationsmittel. Die Prüfergebnisse sind in der Tabelle 6 angegeben. […] Periode der Organogenese erhalten.
# as §6, with “Botanitscheskaja 4” for “Rodina”, “1%iger” for “l%iger”, “von Natriumsatz der” for “von”, “--Thiodivaleriansäure, Bis(di-n-butyläther) der δ, δ' -Thiodiväleriansäure,” for “-Sulfornyldivaleriansäure,”, “Dodezylsulfat.” for “Tetrahydrofuran.”, “7” for “5”
# [1] = Sorte Moskowskaja 35, 1%ige wäßrige Emulsion, 6 kg/ha
# [2] = Sorte Rodina, 1%ige wäßrige Emulsion, 6 kg/ha
# [3] = Sorte Charkowskaja 9, 1%ige Emulsion, 8 kg/ha
# [4] = Sorte Botanitscheskaja 4, 1%ige wäßrige Emulsion, 6 kg/ha
molecule,measurement,setting,value
"O=C([O-])CCCCSCCCCC(=O)[O-].[Na+].[Na+] [Beispiel 2, Natriumsalz der δ, δ'-Thiodivaleriansäure]",Anzahl von Körnern der Ähre bei freier Bestäubung,Winterweizen,"35,3"
same,Anzahl von Körnern der Ähre im Isolator,Winterweizen,"0,3"
same,Prozentsatz der Sterilität,Winterweizen,"99,3%"
same,Prozentsatz des Ansetzens von Körnern bei freier Bestäubung,Winterweizen,"85,7%"
"O=C(O)CCCCS(=O)(=O)CCCCC(=O)O [Beispiel 3, δ, δ' -Sulfonyldivaleriansäure]",Anzahl von Körnern der Ähre bei freier Bestäubung,Winterweizen,"37,2"
same,Anzahl von Körnern der Ähre im Isolator,Winterweizen,"0,0"
same,Prozentsatz der Sterilität,Winterweizen,"100,0%"
same,Prozentsatz des Ansetzens von Körnern bei freier Bestäubung,Winterweizen,"90,3%"
"O=C(O)CCCCSCCCCC(=O)O [Beispiel 15, δ, δ' -Thiodivaleriansäure]",Anzahl von Körnern der Ähre bei freier Bestäubung,Sommerweizen; [1],"31,7"
same,Anzahl von Körnern der Ähre im Isolator,Sommerweizen; [1],"0,9"
same,Prozentsatz der Sterilität,Sommerweizen; [1],"97,0%"
same,Prozentsatz des Ansetzens von Körnern bei freier Bestäubung,Sommerweizen; [1],"98,3%"
"O=C([O-])CCCCSCCCCC(=O)[O-].[Na+].[Na+] [Beispiel 16, Natriumsalz der δ, δ' -Thiodivaleriansäure]",Anzahl von Körnern der Ähre bei freier Bestäubung,Sommerweizen; [1],"30,8"
same,Anzahl von Körnern der Ähre im Isolator,Sommerweizen; [1],"0,9"
same,Prozentsatz der Sterilität,Sommerweizen; [1],"97,0%"
same,Prozentsatz des Ansetzens von Körnern bei freier Bestäubung,Sommerweizen; [1],"96,5%"
"O=C(O)CCCCS(=O)(=O)CCCCC(=O)O [Beispiel 17, δ, δ'--Sulfonyldivaleriansäure]",Anzahl von Körnern der Ähre bei freier Bestäubung,Sommerweizen; [1],"26,7"
same,Anzahl von Körnern der Ähre im Isolator,Sommerweizen; [1],"0,0"
same,Prozentsatz der Sterilität,Sommerweizen; [1],"100,0%"
same,Prozentsatz des Ansetzens von Körnern bei freier Bestäubung,Sommerweizen; [1],"83,6%"
"O=C([O-])CCCCS(=O)(=O)CCCCC(=O)[O-].[Na+].[Na+] [Beispiel 18, Natriumsalz der d, δ' -Sulfonyldivaleriansäure]",Anzahl von Körnern der Ähre bei freier Bestäubung,Sommerweizen; [1],"31,1"
same,Anzahl von Körnern der Ähre im Isolator,Sommerweizen; [1],"0,3"
same,Prozentsatz der Sterilität,Sommerweizen; [1],"99,0%"
same,Prozentsatz des Ansetzens von Körnern bei freier Bestäubung,Sommerweizen; [1],"97,4%"
"O=C([O-])CCCCS(=O)(=O)CCCCC(=O)[O-].[K+].[K+] [Beispiel 19, Kaliumsalz der δ, δ' -Sulfornyldivaleriansäure]",Anzahl von Körnern der Ähre bei freier Bestäubung,Sommerweizen; [1],"30,5"
same,Anzahl von Körnern der Ähre im Isolator,Sommerweizen; [1],"0,3"
same,Prozentsatz der Sterilität,Sommerweizen; [1],"99,0%"
same,Prozentsatz des Ansetzens von Körnern bei freier Bestäubung,Sommerweizen; [1],"95,6%"
"CCCCCCCCCCSCCCCC(=O)O [Beispiel 21, 4-Karboxybutyldezylsulfid]",Anzahl von Körnern der Ähre bei freier Bestäubung,Sommerweizen; [1],"26,9"
same,Anzahl von Körnern der Ähre im Isolator,Sommerweizen; [1],"0,0"
same,Prozentsatz der Sterilität,Sommerweizen; [1],"100,0%"
same,Prozentsatz des Ansetzens von Körnern bei freier Bestäubung,Sommerweizen; [1],"84,3%"
"CCCCC(CC)COC(=O)CCCCSCCCCC(=O)OCC(CC)CCCC (stereo not shown) [Beispiel 22, Bis(2-äthylhexyläther) der δ, δ' -Thiodivaleriansäure]",Anzahl von Körnern der Ähre bei freier Bestäubung,Sommerweizen; [1],"25,7"
same,Anzahl von Körnern der Ähre im Isolator,Sommerweizen; [1],"0,0"
same,Prozentsatz der Sterilität,Sommerweizen; [1],"100,0%"
same,Prozentsatz des Ansetzens von Körnern bei freier Bestäubung,Sommerweizen; [1],"80,6%"
"O=C(O)CCCCS(=O)(=O)CCCCC(=O)O [Beispiel 23, δ, δ' -Sulfornyldivaleriansäure]",Anzahl von Körnern der Ähre bei freier Bestäubung,Sommerweizen; [2],"36,1"
same,Anzahl von Körnern der Ähre im Isolator,Sommerweizen; [2],"0,0"
same,Prozentsatz der Sterilität,Sommerweizen; [2],"100,0%"
same,Prozentsatz des Ansetzens von Körnern bei freier Bestaubung,Sommerweizen; [2],"96,3%"
"CCCCCCCCCCSCCCCC(=O)O [Beispiel 24, 4-Karboxybutyldezylsulfid]",Anzahl von Körnern der Ähre bei freier Bestäubung,Sommerweizen; [2],"29,8"
same,Anzahl von Körnern der Ähre im Isolator,Sommerweizen; [2],"0,0"
same,Prozentsatz der Sterilität,Sommerweizen; [2],"100,0%"
same,Prozentsatz des Ansetzens von Körnern bei freier Bestaubung,Sommerweizen; [2],"79,5%"
"CCCCC(CC)COC(=O)CCCCSCCCCC(=O)OCC(CC)CCCC (stereo not shown) [Beispiel 25, Bis(2-äthylhexyläther) der δ, δ' -Thiodivaleriansäure]",Anzahl von Körnern der Ähre bei freier Bestäubung,Sommerweizen; [2],"31,2"
same,Anzahl von Körnern der Ähre im Isolator,Sommerweizen; [2],"0,0"
same,Prozentsatz der Sterilität,Sommerweizen; [2],"100,0%"
same,Prozentsatz des Ansetzens von Körnern bei freier Bestaubung,Sommerweizen; [2],"83,2%"
"CCCCC(CC)COC(=O)CCCCSCCCCC(=O)OCC(CC)CCCC (stereo not shown) [Beispiel 27, Bis(2-äthylhexyläther) der δ, δ' -Thiodivaleriansäure]",Anzahl von Körnern der Ähre bei freier Bestäubung,Sommerweizen; [3],"28,6"
same,Anzahl von Körnern der Ähre im Isolator,Sommerweizen; [3],"0,0"
same,Prozentsatz der Sterilität,Sommerweizen; [3],"100,0%"
same,Prozentsatz des Ansetzens von Körnern bei freier Bestäubung,Sommerweizen; [3],"88,9%"
"O=C([O-])CCCCSCCCCC(=O)[O-].[Na+].[Na+] [Beispiel 28, Natriumsatz der δ, δ' --Thiodivaleriansäure]",Anzahl von Körnern der Ähre bei freier Bestäubung,Sommerweizen; [4],"36,2"
same,Anzahl von Körnern der Ähre im Isolator,Sommerweizen; [4],"0,3"
same,Prozentsatz der Sterilität,Sommerweizen; [4],"99,2%"
same,Prozentsatz des Ansetzens von Körnern bei freier Bestäubung,Sommerweizen; [4],"90,0%"
"CCCCCCCCCCSCCCCC(=O)O [Beispiel 30, 4-Karboxybutyldezylsulfid]",Anzahl von Körnern der Ähre bei freier Bestäubung,Sommerweizen; [4],"32,8"
same,Anzahl von Körnern der Ähre im Isolator,Sommerweizen; [4],"0,0"
same,Prozentsatz der Sterilität,Sommerweizen; [4],"100,0%"
same,Prozentsatz des Ansetzens von Körnern bei freier Bestäubung,Sommerweizen; [4],"81,6%"
"CCCCC(CC)COC(=O)CCCCSCCCCC(=O)OCC(CC)CCCC (stereo not shown) [Beispiel 31, Bis(2-äthylhexyläther) der δ, δ' -Thiodivaleriansäure]",Anzahl von Körnern der Ähre bei freier Bestäubung,Sommerweizen; [4],"33,4"
same,Anzahl von Körnern der Ähre im Isolator,Sommerweizen; [4],"0,0"
same,Prozentsatz der Sterilität,Sommerweizen; [4],"100,0%"
same,Prozentsatz des Ansetzens von Körnern bei freier Bestäubung,Sommerweizen; [4],"83,1%"
"Bis (die-n-butyläther) der δ, δ' -Thiodivaleriansäure [Beispiel 20]",Anzahl von Körnern der Ähre bei freier Bestäubung,Sommerweizen; [1],"28,7"
same,Anzahl von Körnern der Ähre im Isolator,Sommerweizen; [1],"0,0"
same,Prozentsatz der Sterilität,Sommerweizen; [1],"100,0%"
same,Prozentsatz des Ansetzens von Körnern bei freier Bestäubung,Sommerweizen; [1],"89,9%"
"Bis(di-n-butyläther) der δ, δ' -Thiodivaleriansäure [Beispiel 26]",Anzahl von Körnern der Ähre bei freier Bestäubung,Sommerweizen; [3],"28,7"
same,Anzahl von Körnern der Ähre im Isolator,Sommerweizen; [3],"0,0"
same,Prozentsatz der Sterilität,Sommerweizen; [3],"100,0%"
same,Prozentsatz des Ansetzens von Körnern bei freier Bestäubung,Sommerweizen; [3],"89,1%"
"Bis(di-n-butyläther) der δ, δ' -Thiodiväleriansäure [Beispiel 29]",Anzahl von Körnern der Ähre bei freier Bestäubung,Sommerweizen; [4],"30,6"
same,Anzahl von Körnern der Ähre im Isolator,Sommerweizen; [4],"0,0"
same,Prozentsatz der Sterilität,Sommerweizen; [4],"100,0%"
same,Prozentsatz des Ansetzens von Körnern bei freier Bestäubung,Sommerweizen; [4],"76,2%"
